From patent US6489137B2, “Detection of loss of the wild-type huBUB1 gene” (Chiron Corporation, priority 1997, dated 2002)

Target: T1, huBUB1 kinase (Homo sapiens, UniProt O43683)
T1 construct: Plasmid p385-1, encoding full-length huBUB1 in the vector pCR3.1 (Invitrogen), was employed as a backbone for further constructs; made in house; host or cells: cell-free coupled in vitro transcription/translation (T7 TnT kit, Promega) from pCR3.1 plasmids, anti-FLAG immunopurified
Assay: in vitro huBUB1 kinase (autophosphorylation) assay
Assay type: biochemical
Conditions: for relative huBUB1 autophosphorylation: immunopurified FLAG-BUB3/BUB1, labeled-ATP kinase reaction, SDS-PAGE, phosphorimager; for inhibition of huBUB1 kinase (result in words): tested at 5, 10 and 20 μM
From the text: A set of known compounds was screened using an in vitro huBUB1 kinase assay. Tested compounds included olomucine, myrecetin, hypericin, iodotubercidin, ellagic acid, emodin, and staurosporine. The relative specificity of these compounds towards known kinases has been reported in the literature. Some of these compounds can be classified as relatively specific kinase inhibitors (e.g., olomucine, myrecetin, ellagic acid), while other inhibitors are known to inhibit a broad range of kinase (e.g., hypericin, iodotubercidin, staurosporine).
Unlabeled FLAG-BUB3/BUB1 in vitro translation products were immunopurified with anti-FLAG. […] kinase reactions were performed in the presence and absence of inhibitors in 20 μl reaction volumes. Labeled reaction products were separated on SDS-PAGE gels, and relative huBUB1 autophosphorylation was determined with the aid of a phosphorimager. An initial screen was conducted using 10 and 20 μM of each compound. Compounds with a positive result in this screen were then retested at 5, 10 and 20 μM (Table 1).

T1 sequence (O43683 whole entry): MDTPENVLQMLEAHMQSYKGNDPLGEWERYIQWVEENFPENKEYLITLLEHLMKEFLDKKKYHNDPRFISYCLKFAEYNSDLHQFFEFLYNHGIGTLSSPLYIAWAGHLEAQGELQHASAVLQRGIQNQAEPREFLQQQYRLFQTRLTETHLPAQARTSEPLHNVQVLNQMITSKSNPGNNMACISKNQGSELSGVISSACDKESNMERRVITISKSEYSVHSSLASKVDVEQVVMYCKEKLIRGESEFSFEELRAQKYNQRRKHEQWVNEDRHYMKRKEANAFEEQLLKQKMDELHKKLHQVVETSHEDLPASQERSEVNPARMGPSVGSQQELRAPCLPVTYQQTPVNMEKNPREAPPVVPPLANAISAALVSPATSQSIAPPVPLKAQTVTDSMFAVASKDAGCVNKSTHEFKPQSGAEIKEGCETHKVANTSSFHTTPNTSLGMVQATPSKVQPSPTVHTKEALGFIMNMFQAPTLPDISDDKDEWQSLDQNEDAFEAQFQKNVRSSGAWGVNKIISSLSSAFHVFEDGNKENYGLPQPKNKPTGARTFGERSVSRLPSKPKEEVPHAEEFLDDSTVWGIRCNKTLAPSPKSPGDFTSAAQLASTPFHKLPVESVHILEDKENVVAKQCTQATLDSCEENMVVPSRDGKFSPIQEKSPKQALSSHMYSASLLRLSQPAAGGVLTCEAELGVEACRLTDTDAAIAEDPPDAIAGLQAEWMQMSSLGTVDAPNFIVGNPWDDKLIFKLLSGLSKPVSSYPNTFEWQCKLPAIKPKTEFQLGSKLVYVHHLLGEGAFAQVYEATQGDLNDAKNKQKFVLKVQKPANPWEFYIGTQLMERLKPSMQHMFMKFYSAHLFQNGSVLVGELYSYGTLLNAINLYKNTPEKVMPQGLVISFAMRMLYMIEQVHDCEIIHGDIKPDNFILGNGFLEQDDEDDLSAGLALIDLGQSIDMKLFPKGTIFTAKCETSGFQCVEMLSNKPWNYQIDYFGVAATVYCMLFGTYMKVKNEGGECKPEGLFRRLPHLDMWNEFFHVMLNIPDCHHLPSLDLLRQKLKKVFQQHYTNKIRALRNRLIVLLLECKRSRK
T1 sequence (O43684 whole entry partner): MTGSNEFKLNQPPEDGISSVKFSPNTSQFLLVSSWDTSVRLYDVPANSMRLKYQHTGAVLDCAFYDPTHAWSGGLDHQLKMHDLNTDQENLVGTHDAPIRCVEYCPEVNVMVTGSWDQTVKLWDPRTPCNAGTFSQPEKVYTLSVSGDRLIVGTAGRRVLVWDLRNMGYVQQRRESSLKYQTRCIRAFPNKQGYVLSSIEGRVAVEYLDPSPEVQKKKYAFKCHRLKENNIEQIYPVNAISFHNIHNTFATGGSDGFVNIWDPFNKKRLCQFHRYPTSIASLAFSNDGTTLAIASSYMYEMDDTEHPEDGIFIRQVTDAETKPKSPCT

Row | Compound | relative huBUB1 autophosphorylation (5 μM compound) | relative huBUB1 autophosphorylation (10 μM compound) | relative huBUB1 autophosphorylation (20 μM compound) | inhibition of huBUB1 kinase (result in words)
1 | CN[C@@H]1C[C@H]2O[C@@](C)([C@@H]1OC)n1c3ccccc3c3c4c(c5c6ccccc6n2c5c31)C(=O)NC4 [staurosporine] | 0.45 +/− 0.11 | 0.49 +/− 0.11 | 0.26 +/− 0.04 | clearly inhibited
2 | Cc1cc(O)c2c(=O)c3c(O)cc(O)c4c5c(O)cc(O)c6c(=O)c7c(O)cc(C)c8c1c2c(c34)c(c78)c65 [hypericin] | 0.63 +/− 0.07 | 0.47 +/− 0.13 | 0.36 +/− 0.05 | 
3 | Nc1ncnc2c1c(I)cn2[C@@H]1O[C@H](CO)[C@@H](O)[C@H]1O [iodotubercidin] | 0.56 +/− 0.08 | 0.41 +/− 0.09 | 0.32 +/− 0.05 | clearly inhibited
